Data taken from paper PMC8234864, “Early Effects of the Soluble Amyloid β25-35 Peptide in Rat Cortical Neurons: Modulation of Signal Transduction Mediated by Adenosine and Group I Metabotropic Glutamate Receptors” (International Journal of Molecular Sciences, 2021).
Where no end group is shown, it is not given here.

Assays:
[1] = test system: A1R (ADORA1) gene expression; assay: A1R gene expression by real-time PCR; format: cell-based, rat; settings: 25 µM, 24 or 48 h
Protocol: (§1) Total RNA was extracted using an ABI 6100 Nucleic Acid PrepStation according to the manufacturer’s protocol (Applied Biosystems Inc., Foster City, CA, USA). Total RNA from cells was isolated and stored at −80 °C. The quality of isolated RNA was estimated by the ratio A260/A280 and was in the range of 1.9–2.1. RNA integrity was evaluated by agarose gel electrophoresis according to MIQE guidelines using the “bleach gel” method. RNA concentrations were determined from the A260. One microgram of total RNA was reverse transcribed using Applied Biosystems High-Capacity cDNA Archive Kit.
(§2) To assess relative gene expression in neurons, quantitative real-time RT-PCR analysis was performed with an Applied Biosystems Prism 7500 Fast Sequence Detection System using TaqMan® universal PCR master mix according to the manufacturer’s specifications. […] Levels of RNA expression were determined using the 7500 Fast System SDS software version 1.3.1 (Applied Biosystems) according to the 2^−ΔΔCt method. […] The results from three independent repeat assays, performed in different plates each using different cDNA’s from the cultures analyzed, were averaged to produce a single mean quantity value for each mRNA.

A1R = biological target: T1, A1R (Rattus norvegicus, UniProt P25099); assay: [3H]DPCPX radioligand binding in intact cortical neurons; settings: for Total A1R density (Bmax) increase over control value: 25 µM; for A1R Bmax: [3H]DPCPX saturation binding
T1 construct: endogenous in cells; host or cells: rat primary cortical neurons (intact)
T1 sequence (P25099 1-326): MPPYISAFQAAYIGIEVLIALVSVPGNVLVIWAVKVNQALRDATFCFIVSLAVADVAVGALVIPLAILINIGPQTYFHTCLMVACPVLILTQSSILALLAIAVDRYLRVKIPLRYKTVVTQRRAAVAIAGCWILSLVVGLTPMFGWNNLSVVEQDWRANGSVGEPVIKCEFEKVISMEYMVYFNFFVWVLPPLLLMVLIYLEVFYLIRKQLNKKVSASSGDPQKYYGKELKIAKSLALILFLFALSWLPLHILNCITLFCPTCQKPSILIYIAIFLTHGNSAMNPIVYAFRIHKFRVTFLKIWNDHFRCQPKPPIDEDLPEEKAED
Protocol: Concerning adenosine receptor assessment by radioligand binding, [^3H]DPCPX and [^3H]ZM241385 were employed as selective A1R and A2AR radioligands, as described previously, to determine A1R and A2AR density, respectively. Briefly, primary cortical neurons growth in 24-well plates were washed with serum-free DMEM and pre-incubated with 2 U/mL ADA at 37 °C for 30 min to remove endogenous adenosine. After incubation, the radioligands [^3H]DPCPX (1–20 nM) or [^3H] ZM241385 (1–20 nM) were added in the absence or the presence of CPA in a concentration 10^4 times higher than the radioligand, to obtain non-specific binding to A1R, or 5 mM theophylline, to obtain non-specific binding to A2AR. A specific adenosine uptake inhibitor (1 µM dipyridamole) was added to the reaction mixture to block adenosine receptor ligands’ binding to adenosine transporters. After incubation at 25 °C for 2 h in a final volume of 250 µL, cells were washed with 500 µL of ice-cold buffer and disrupted with 0.2% SDS. Well contents were then transferred to vials and a scintillation liquid mixture was added to measure radioactivity. Two wells from each plate were reserved for protein concentration measurement.

Caspase 3 = Caspase 3 activity assay; format: cell-based, rat; settings: 25 µM Aβ25-35 exposure
Protocol: A commercial kit (Molecular Probes, Barcelona, Spain) was used to determine Caspase 3 activity following the manufacturer’s instructions. Briefly, cortical neurons growth in 24-well plates were exposed to Aβ25-35 or maintained under control conditions. Cells were lysed and lysates centrifuged to clear cell debris. Then, 50 µL of test buffer containing Z-DEVD-Rhodamine 110, DTT, EDTA, PIPES, and CHAPS was added to the supernatants obtained in the proportions indicated by the manufacturer. After 30 min of incubation at room temperature, the […] of each sample was measured on a plate reader (excitation/emission 496/520 nm).

[2] = test system: Caspase 3 (Casp3) gene expression; assay: Caspase 3 gene expression by real-time RT-PCR; format: cell-based, rat; settings: 25 µM
Protocol: as §1, §2

[3] = test system: A2BR (ADORA2B) gene expression; assay: A2BR gene expression by real-time PCR; format: cell-based, rat; settings: 25 µM, 24 or 48 h
Protocol: as §1, §2

[4] = neurons exposed to 25 µM for 24 h
[5] = neurons exposed to 25 µM for 48 h

- Total A1R density (Bmax) increase over control value (A1R; 24 h): 265%
- Total A1R density (Bmax) increase over control value (A1R; 48 h): 184%
- Kd (A1R; [4]): 7.51 ± 2.35 nM
- A1R Bmax (A1R; [4]): 545 ± 101 fmol/mg prot
- Kd (A1R; [5]): 5.51 ± 1.33 nM
- A1R Bmax (A1R; [5]): 423 ± 66 fmol/mg prot
- caspase 3 activity (Caspase 3): increase
- caspase 3 gene expression ([2]; 24 h): significant increase
- caspase 3 gene expression ([2]; 48 h): significant increase
Sequence: GSNKGAIIGLM [Aβ25-35]
- A1R gene expression [1]: significantly increased
- A2BR gene expression [3]: significantly increased
